Measured values from patent publication US20140249143A1, “Compounds And Methods For Enhancing Innate Immune Responses” (GlaxoSmithKline LLC, priority 2011, published 2014).

Columns and labels:
Type in all cases: cell-based
[1] = tested on: HCV genotype 1b subgenomic replicon; assay: Anti-Hepatitis C replicon assay, genotype 1b (luciferase); conditions: Hepatitis C virus; luciferase activity measured 48 hours later; read-out: HCV Genotype 1B Replicon pEC50 (converted)
Experimental: (§1) Compounds were assayed for activity against HCV using the genotype 1a and 1b subgenomic replicon model systems. Stable cell lines bearing the genotype 1a and 1b replicons were used for screening of compounds. Both replicons are bicistonic and contain the firefly luciferase gene. The ET cell line is stably transfected with RNA transcripts harboring a I389luc-ubi-neo/NS3-3′/ET replicon with firefly luciferase-ubiquitin-neomycin phosphotransferase fusion protein and EMCV-IRES driven NS3-5B polyprotein containing the cell culture adaptive mutations (E1202G; T1280I; K1846T) (Krieger at al, 2001 and unpublished). The genotype 1a replicon is a stable cell line licensed from Apath LLC, modified to contain the firefly luciferase gene. The cells were grown in DMEM, supplemented with 10% fetal calf serum, 2 mM Glutamine, Penicillin (100 IU/mL)/Streptomycin (100 μg/mL), 1× nonessential amino acids, and 250-500 μg/mL G418 (“Geneticin”). They were all available through Life Technologies (Bethesda, Md.). The cells were plated at 0.5×10^4 cells/well in 384 well plates containing compounds. The final concentration of compounds ranged between 0.03 pM to 50 μm and the final DMSO concentration of 0.5-1%.
(§2) Luciferase activity was measured 48 hours later by adding a Steady glo (Promega, Madison, Wis.). Percent inhibition of replication data was plotted relative to no compound control. Under the same condition, cytotoxicity of the compounds was determined using cell titer glo (Promega, Madison, Wis.). IC50s were determined from a 10 point dose response curve using 3-4-fold serial dilution for each compound, which spans a concentration range>1000 fold. BioAssay determines the level of inhibition for each compound by normalizing cross-talk corrected plate values against the negative (low or background, cells with no compound present) and positive (high DMSO, no cells) controls to determine Percent Inhibition:
(§3) These normalized values are exported to IC50 where they are plotted against the molar compound concentrations using the standard four parameter logistic equation: […]

[2] = tested on: HCV genotype 1a subgenomic replicon; assay: Anti-Hepatitis C replicon assay, genotype 1a (luciferase); conditions: Hepatitis C virus; luciferase activity measured 48 hours later; read-out: HCV Genotype 1A Replicon pEC50 (converted)
Experimental: as §1, §2, §3

[3] = tested on: ISG56 (Interferon-Stimulated Gene 56) promoter ISRE; assay: ISG56 luciferase reporter assay in HEK 293 cells; conditions: Homo sapiens, HEK293; HEK 293 reporter, 24 hours; 100% = small molecule control test compound; read-out: ISG56 (Average Max Response) %
Experimental: Compounds of the present invention were tested against a HEK (Human Embryonic Kidney) 293 cell line that was stably transfected with a firefly luciferase reporter gene under the control of the ISG56 (Interferon-Stimulated Gene 56) promoter ISRE (Interferon-Stimulated Response Element). While the ISRE is in the opposite orientation of the wild type promoter, literature^1 cites that the response elements are pallindromic and function properly in either orientation. ^1Reich, N., Evans, B., Levy, D., Fahey, D., Knight, E., Damell, J. E. (1987) Interferon-induced transcription of a gene encoding a 15-kDa protein depends on an upstream enhancer element. See, Proc. Natl. Acad. Sci. 84, (6394-6398).
In preparation for the assay, test compounds were serially diluted 3-fold in DMSO from a typical top concentration of 5 mM and plated at 0.2 μL in a 384-well, polystyrene, tissue culture treated plate with lid (Greiner Bio-One North America, Inc., Monroe, N.C.) to generate 11-point dose response curves in the assay. Low control wells (0% response) contained 0.2 μL of DMSO alone, and high control wells (100% response) contained 0.2 μL of a small molecule control test compound.
Frozen stocks of the transfected HEK 293 cells were washed and recovered in DMEM I Ham's F-12 media (Invitrogen Corporation, Carlsbad, Calif.) supplemented with 10% v/v qualified Australian fetal bovine serum (FBS) (Invitrogen Corporation, Carlsbad, Calif.), 1× GlutaMAX™ (Invitrogen Corporation, Carlsbad, Calif.), 1×MEM non-essential amino acids (NEAA) (Invitrogen Corporation, Carlsbad, Calif.) and 500 μg/ml Geneticin® (Invitrogen Corporation, Carlsbad, Calif.). The cells were diluted to 500,000 cells/mL in the supplemented DMEM/Ham's F-12 media, and 20 μL of the cell suspension were added to each well of the previously prepared 384-well compound plate, resulting in 10,000 cells/well. The plate, with lid, were placed in a 37° C., 5% CO2 humidified incubator for 24 hours.
Following incubation, the plates were removed and placed on the bench top without lids to equilibrate to room temperature for 30 minutes. Steady-Glo® (Promega Corporation, Madison, Wis.) was prepared according to the manufacturer's instructions, and 10 μL were added to each plate well. After a twenty minute incubation at room temperature, luminescence was read on a ViewLux™ (PerkinElmer Inc., Waltham, Mass.).
The data for dose responses were plotted as % activation versus compound concentration following normalization using the formula 100*((U−C1)/(C2−C1)), where U was the unknown value, C1 was the average of the low (0% response) control wells and C2 was the average of the high (100% response) control wells. Curve fitting was performed with the equation y=A+((B−A)/(1+(10^x/10^C)^D)), where A was the minimum response, B was the maximum response, C was the log(EC50) and D was the Hill slope. The results for each test compound were recorded as pEC50 values (—C in the above equation) and as max response values at a given concentration.

In the case of `CC(C)c1cc(C(F)(F)F)c2ccc3nc(-c4nnco4)cn3c2n1` [Compound 3, 2-[2-(propan-2-yl)-4-(trifluoromethyl)imidazo[1,2-a]1,8-naphthyridin-8-yl]-1,3,4-oxadiazole], the EC50 [1] is reported as 316 nM, the EC50 [2] is reported as 100 nM and the Emax [3] is reported as 408%.

`FC(F)(F)c1cc(C(F)(F)F)c2ccc3nc(-c4cnco4)cn3c2n1` [Compound 4, 5-[2,4-bis(trifluoromethyl)imidazo[1,2-a]1,8-naphthyridin-8-yl]-1,3-oxazole] was tested, and the EC50 [1] was 398 nM, the EC50 [2] was 126 nM and the Emax [3] was 178%.

In the case of `FC(F)(F)c1cc(C2CC2)nc2c1ccc1nc(-c3nnco3)cn12` [Compound 5, 2[2-cyclopropyl-4-(trifluoromethyl)imidazo[1,2-a]1,8-naphthyridin-8-yl]-1,3,4-oxadiazole], the EC50 [1] is reported as 398 nM, the EC50 [2] is reported as 100 nM and the Emax [3] is reported as 151%.

Work on `FC(F)(F)c1cc(-c2ccsc2)nc2c1ccc1nc(-c3nnco3)cn12` [Compound 6, 2-[2-(thiophen-3-yl)-4-(trifluoromethyl)imidazo[1,2-a]1,8-naphthyridin-8-yl]-1,3,4-oxadiazole] yielded an EC50 [1] of 501 nM, an EC50 [2] of 200 nM and an Emax [3] of 7.75%.

Molecule `Cc1cc(C(F)(F)F)c2ccc3nc(-c4nnco4)cn3c2n1` [Compound 7, 2-[2-methyl-4-(trifluoromethyl)imidazo[1,2-a]1,8-naphthyridin-8-yl]-1,3,4-oxadiazole] has an EC50 [1] of 631 nM and an EC50 [2] of 1260 nM.

Molecule `FC(F)(F)c1cc(C(F)(F)F)c2ccc3[nH]c(-c4nnco4)cc3c2n1` [Compound 8, 2-[2,4-bis(trifluoromethyl)-7H-pyrrolo[2,3-h]quinolin-8-yl]-1,3,4-oxadiazole] has an EC50 [1] of 631 nM, an EC50 [2] of 631 nM and an Emax [3] of 2.5%.

`Cc1c(-c2nnco2)nc2ccc3c(C(F)(F)F)cc(C(F)(F)F)nc3n12` [Compound 9, 2-[9-methyl-2,4-bis(trifluoromethyl)imidazo[1,2-a]1,8-naphthyridin-8-yl]-1,3,4-oxadiazole] showed an EC50 [1] of 794 nM, an EC50 [2] of 158 nM and an Emax [3] of 262%.

Work on `CCOc1cc(C(F)(F)F)c2ccc3nc(-c4nnco4)cn3c2n1` [Compound 10, 2-[2-ethoxy-4-(trifluoromethyl)imidazo[1,2-a]1,8-naphthyridin-8-yl]-1,3,4-oxadiazole] yielded an EC50 [1] of 794 nM, an EC50 [2] of 1000 nM and an Emax [3] of 10%.

`FC(F)(F)c1cc(-c2ccoc2)nc2c1ccc1nc(-c3nnco3)cn12` [Compound 12, 2-[2-(furan-3-yl)-4-(trifluoromethyl)imidazo[1,2-a]1,8-naphthyridin-8-yl]-1,3,4-oxadiazole] was tested, and the EC50 [1] was 794 nM, the EC50 [2] was 398 nM and the Emax [3] was 13.5%.

In the case of `CCc1cc(C(F)(F)F)c2ccc3nc(-c4nnco4)cn3c2n1` [Compound 13, 2-[2-ethyl-4-(trifluoromethyl)imidazo[1,2-a]1,8-naphthyridin-8-yl]-1,3,4-oxadiazole], the EC50 [1] is reported as 1000 nM, the EC50 [2] is reported as 398 nM and the Emax [3] is reported as 346%.

In the case of `FC(F)(F)c1cc(C(F)(F)F)c2ccc3cc(-c4nnco4)n(Cc4ccccc4)c3c2n1` [Compound 14, 2-[1-benzyl-6,8-bis(trifluoromethyl)-1H-pyrrolo[3,2-h]quinolin-2-yl]-1,3,4-oxadiazole], the EC50 [1] is reported as 1000 nM, the EC50 [2] is reported as 7940 nM and the Emax [3] is reported as 10%.

For `FC(F)(F)c1cc(C(F)(F)F)c2ccc3cc(-c4nnco4)[nH]c3c2n1` [Compound 15, 2-[6,8-bis(trifluoromethyl)-1H-pyrrolo[3,2-h]quinolin-2-yl]-1,3,4-oxadiazole], the EC50 [1] was 1000 nM, the EC50 [2] was 398 nM and the Emax [3] was 63.5%.

`Cn1c(-c2nnco2)cc2ccc3c(C(F)(F)F)cc(C(F)(F)F)nc3c21` [Compound 16, 2-[1-methyl-6,8-bis(trifluoromethyl)-1H-pyrrolo[3,2-h]quinolin-2-yl]-1,3,4-oxadiazole] showed an EC50 [1] of 1000 nM, an EC50 [2] of 251 nM and an Emax [3] of 35.5%.

In the case of `FC(F)(F)c1cc(-c2ccccc2)nc2c1ccc1nc(-c3nnco3)cn12` [Compound 17, 2-[2-phenyl-4-(trifluoromethyl)imidazo[1,2-a]1,8-naphthyridin-8-yl]-1,3,4-oxadiazole], the EC50 [1] is reported as 1260 nM, the EC50 [2] is reported as 501 nM and the Emax [3] is reported as 31.5%.

`FC(F)(F)c1cc(C(F)(F)F)c2ccc3nc(-c4nnco4)c(Cl)n3c2n1` [Compound 18, 2-[9-chloro-2,4-bis(trifluoromethyl)imidazo[1,2-a]1,8-naphthyridin-8-yl]-1,3,4-oxadiazole] was tested, and the EC50 [1] was 1580 nM, the EC50 [2] was 251 nM and the Emax [3] was 27%.

Molecule `FC(F)(F)c1cc(-c2cccnc2)nc2c1ccc1nc(-c3nnco3)cn12` [Compound 19, 3-[8-(1,3,4-oxadiazol-2-yl)-4-(trifluoromethyl)imidazo[1,2-a]1,8-naphthyridin-2-yl]pyridine] has an EC50 [1] of 1580 nM, an EC50 [2] of 12600 nM and an Emax [3] of 9%.

In the case of `FC(F)Oc1cc(C(F)(F)F)c2ccc3nc(-c4nnco4)cn3c2n1` [Compound 20, 2-[2-(difluoromethoxy)-4-(trifluoromethyl)imidazo[1,2-a]1,8-naphthyridin-8-yl]-1,3,4-oxadiazole], the EC50 [1] is reported as 1580 nM, the EC50 [2] is reported as 1000 nM and the Emax [3] is reported as 13.5%.

Work on `O=C(C1CCC1)n1c(-c2nnco2)cc2ccc3c(C(F)(F)F)cc(C(F)(F)F)nc3c21` [Compound 21, 2-[1-cyclobutanecarbonyl-6,8-bis(trifluoromethyl)-1H-pyrrolo[3,2-h]quinolin-2-yl]-1,3,4-oxadiazole] yielded an EC50 [1] of 2000 nM, an EC50 [2] of 631 nM and an Emax [3] of 70%.

`CC(=O)n1c(-c2nnco2)cc2ccc3c(C(F)(F)F)cc(C(F)(F)F)nc3c21` [Compound 22, 1-[2-(1,3,4-oxadiazol-2-yl)-6,8-bis(trifluoromethyl)-1H-pyrrolo[3,2-h]quinolin-1-yl]ethan-1-one] showed an EC50 [1] of 2000 nM, an EC50 [2] of 501 nM and an Emax [3] of 60.5%.

In the case of `CC(C)c1cc(Cl)c2ccc3nc(-c4nnco4)cn3c2n1` [Compound 23, 2-[4-chloro-2-(propan-2-yl)imidazo[1,2-a]1,8-naphthyridin-8-yl]-1,3,4-oxadiazole], the EC50 [1] is reported as 3160 nM, the EC50 [2] is reported as 1260 nM and the Emax [3] is reported as 110%.

Molecule `CC(C)c1cc(C(C)C)c2ccc3nc(-c4nnco4)cn3c2n1` [Compound 30, 2-[2,4-bis(propan-2-yl)imidazo[1,2-a]1,8-naphthyridin-8-yl]-1,3,4-oxadiazole] has an EC50 [1] of 1000 nM and an EC50 [2] of 316 nM.

Work on `CC(C)c1cc(-c2ccccc2)c2ccc3nc(-c4nnco4)cn3c2n1` [Compound 31, 2-[4-phenyl-2-(propan-2-yl)imidazo[1,2-a]1,8-naphthyridin-8-yl]-1,3,4-oxadiazole] yielded an EC50 [1] of 1260 nM and an EC50 [2] of 398 nM.
